Experimental data reported in US20260325655A1, “DECREASING THE INTRINSICALLY DISORDERED PROTEIN ALPHA-SYNUCLEIN’S LEVELS BY TARGETING ITS STRUCTURED MRNA WITH A RIBONUCLEASE TARGETING CHIMERA” (University of Florida Research Foundation, Incorporated, priority 2023, published 2026).

Columns and labels:
Type in all cases: cell-based, human
SH-SY5Y cells = experiment: cytoprotection of SH-SY5Y cells against α-synuclein pre-formed fibrils (PFF), LDH assay; details: Syn-RIBOTAC vs Synucleozid 2.0
Protocol: Lactate Dehydrogenase (LDH) assay. SH-SY5Y cells in 96-well plates (~60% confluency) were pre-treated with compounds in growth medium for 24 h, followed by addition of 50 ng/μL of human α-synuclein pre-formed fibrils (PFFs, SPR-322 from Eagle Biosciences). The cells were then incubated for an additional 48 h. Cell viability was measured using LDH (Lactate Dehydrogenase) Cytotoxicity Detection Kit (MK401; Takara) according to the manufacturer's instructions.

ferritin mRNA = ferritin mRNA in SH-SY5Y cells by RT-qPCR
Protocol: (§1) RNA extraction and reverse transcription-quantitative polymerase chain reaction (RT-qPCR). Total RNA was extracted from cells using a Quick-RNA MiniPrep Kit (Zymo Research) per the manufacturer's protocol including DNase treatment. For each sample, 200 ng of RNA was reverse transcribed into cDNA by using a qScript cDNA Synthesis Kit (QuantaBio) according to the manufacturer's instructions. To assess the relative mRNA levels, RT-qPCR was performed in triplicate using SYBR Green PCR mater mix (Applied Biosystems) with a Quant Studio 5 Real-Time PCR system. The relative levels of mRNA were calculated by using the ΔΔCt method as previously described.^8

[1] = system: SNCA IRE-luciferase transcript; experiment: SNCA IRE-luciferase transcript abundance by RT-qPCR; details: Homo sapiens, 2 μM, read-out: reduction of SNCA IRE-luciferase transcript levels
Protocol: as §1
Plasmid constructs and establishment of reporter gene overexpressing cells. Construction of pIRES-Luc-EGFP-puro plasmid and pCDH-α-syn-5′-UTR-Luc-EGFP-puro plasmid used in 5′ UTR-luciferase-based selectivity assay were previously described.^4 Briefly, In-Fusion PCR cloning system (Takara Bio, Mountain View, CA, USA) was used for all plasmid constructions per the manufacturer's instructions. To ensure sequence accuracy, all plasmids generated in this study were confirmed by sequencing.

ferritin = ferritin protein in SH-SY5Y cells by Western blot
Protocol: Western blotting. After 48 h, cells were gently washed with ice-cold 1× DPBS, and total protein was extracted with Mammalian Protein Extraction Reagent (M-PER, Thermo Scientific) per the manufacturer's protocol. After quantifying protein concentration by using BCA Protein Assay Kit (Pierce Biotechnology), ~30 μg of total protein for each sample was separated using a 10% SDS-polyacrylamide gel and transferred onto a PVDF membrane. The membrane was fixed with 0.4% paraformaldehyde (pH=7.0) for 30 min at room temperature^9 and then blocked with 5% (w/v) non-fat dry milk in 1× TBST (1× TBS containing 0.1% Tween-20) for 1 h at room temperature. […] After washing 10 min each with 1× TBST three times, immunocomplex signals of each protein were detected by using a SuperSignal West Pico Chemiluminescent Substrate (Pierce Biotechnology) according to the manufacturer's protocol. The memebrane was then stripped by using 1× Stripping Buffer (200 mM glycine, pH 2.2, 4 mM SDS, 1% (v/v) Tween 20) at room temperature for 15 min, followed by blocking with 5% (w/v) non-fat dry milk at room temperature for 1 h. β-actin was used to normalize the levels of all proteins, measured by incubating with a primary antibody for β-actin (1:5000, 3700S from Cell Signaling Technology) at 4° C. overnight. […]

SMILES: CCOC(=O)C1=C(Nc2ccccc2)S/C(=C\c2ccc(OCCOCCOCCOCCNC(=O)CCCOc3ccc(-n4c(SCC(=O)Nc5ccc6cn[nH]c6c5)nnc4-c4ccncc4)cc3)c(O)c2)C1=O [Syn-RiboTAC]
- cytoprotective effect relative to the binding small molecule (SH-SY5Y cells): 5 -fold
- effect on ferritin mRNA level (ferritin mRNA): None of the three transcripts was affected
- inhibition at 2 µM [1]: ~50%
- effect on ferritin protein level (ferritin): no effect
